Several values for one entry are separate records, joined by “and”; a condition that tells them apart may be missing. Equal values may be shown once.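 Interpolation was linear, between the two tested concentrations surrounding the appropriate level; five concentrations were tested over 48 hours in 96-well plates. GI50 marks 50% less growth. TGI denotes the concentration required for complete inhibition of growth.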
Assays:
Assay in all cases: NCI anticancer screen, dose series, 48 h
A549 NSCLC = tested on: A549 NSCLC
CAKI-1 renal = tested on: CAKI-1 renal
EKVX NSCLC = tested on: EKVX NSCLC
HOP-92 NSCLC = tested on: HOP-92 NSCLC
K-562 leukemia = tested on: K-562 leukemia
MOLT-4 leukemia = tested on: MOLT-4 leukemia
NCI-H460 lung = tested on: NCI-H460 lung
OVCAR-4 ovarian = tested on: OVCAR-4 ovarian
OVCAR-5 ovarian = tested on: OVCAR-5 ovarian
SF-268 CNS = tested on: SF-268 CNS
SN12C renal = tested on: SN12C renal
TK-10 renal = tested on: TK-10 renal
MCF7 breast = tested on: MCF7 breast
SF-539 CNS = tested on: SF-539 CNS
HS 578T breast = tested on: HS 578T breast

SMILES | TGI (A549 NSCLC) [µM] | TGI (CAKI-1 renal) [µM] | TGI (EKVX NSCLC) [µM] | TGI (HOP-92 NSCLC) [µM] | TGI (K-562 leukemia) [µM] | TGI (MOLT-4 leukemia) [µM] | TGI (NCI-H460 lung) [µM] | TGI (OVCAR-4 ovarian) [µM] | TGI (OVCAR-5 ovarian) [µM] | TGI (SF-268 CNS) [µM] | TGI (SN12C renal) [µM] | TGI (TK-10 renal) [µM] | TGI (MCF7 breast) [µM] | TGI (SF-539 CNS) | TGI (HS 578T breast) [µM] | GI50 (OVCAR-5 ovarian) [µM]
O=c1c2ccccc2nc2ccc3c(Cl)[nH][nH]c3c12 | > 100 | 85.3 | > 100 | > 100 | > 100 | > 79 | > 100 | > 100 | 98 | > 100 | > 100 | > 100 |  |  |  | 
CC1=CCC[C@H]2[C@](C)(CC3=CC(=O)C(SCC(C)C)=CC3=O)[C@@H](C)CC[C@]12C | 29.9 | 16.7 | 31 | 17.9 | 30.8 | 6.19 | 31.5 | 31.8 | 40.9 |  | > 57.5 | 31.3 | 37.7 | 33.2 µM |  | 
CC1(C)Oc2ccc3c(=O)cc(-c4ccccc4)oc3c2C1C(=O)O (centres undefined) | > 100 | > 100 | > 100 |  | > 100 | > 100 |  | > 100 | > 100 | > 100 | > 100 | > 100 | > 100 | > 100 µM | > 100 | 
COc1ccc(Oc2ccccc2N)cc1 | > 100 |  | > 100 | > 100 | > 100 | > 100 | > 100 | > 100 | > 100 | > 100 | > 100 |  |  | 57.3 µM |  | 
CC(C)Oc1cccc(N2C(Nc3ccccc3)=Nc3ccncc3S2(=O)=O)c1 | > 100 | > 100 | > 100 | 49 | > 100 | > 100 | > 100 | > 100 | > 100 | > 100 | > 100 |  | > 100 | 44.9 µM | > 100 | 
CSc1cnc2ccccc2c1Sc1c[nH]c2ccccc2c1=O | 24.8 |  | > 45.8 | 29.7 | > 58.1 | > 44.7 | 22.8 | 33 | 59.4 | > 100 | 76.3 | 91.4 |  | 31.1 µM |  | 
CC(=O)OCC1OC(n2c(C)c(C)c(C)c(C#N)c2=S)C(OC(C)=O)C(OC(C)=O)C1OC(C)=O (centres undefined) | > 100 | > 100 | 94.3 | > 100 | > 100 | > 100 | > 100 | > 100 | > 100 | > 100 | > 100 | > 100 | > 100 | > 100 µM |  | 
CC(=O)C(C)(C)CCC(C)(C)C(C)=O | > 100 | > 100 | > 100 |  | > 100 | > 100 | > 100 | > 100 | > 100 | > 100 | > 100 | > 100 | > 100 | > 100 µM | > 100 | 
CCOC(=O)C1=C(O)c2ccc(C)cc2C(=O)C1=O | > 100 | > 100 | > 100 | > 100 | > 100 | > 100 | > 100 | > 100 | > 100 | > 100 | > 100 | > 100 |  | > 100 µM |  | 
O=C(O)c1ccccc1C1c2ccccc2Oc2ccccc21 | > 100 | > 100 | > 100 | 77.5 | > 100 | > 100 | > 100 | > 100 | > 100 | > 100 | > 100 | > 100 |  |  |  | 
O=C(O)/C=C\C(=O)Nn1c(Cc2ccc(Cl)cc2)n[nH]c1=O | > 100 | > 100 | > 100 |  | > 100 | > 100 | > 100 | > 100 | > 100 | > 100 | > 100 | > 100 | > 100 | > 100 µM | > 100 | 
Cn1c(=O)sc2cc(C(=S)N3CCCCC3)ccc21 |  | > 100 | > 100 |  | > 100 | > 100 | > 100 |  | > 100 | > 100 | > 100 | > 100 | > 100 | > 100 µM | > 100 | 
COC(=O)Cn1cnc2c(Cl)nc(Nc3ccccc3)nc21 | > 100 |  | 88 |  | > 100 | 84.7 | > 100 | > 100 |  |  | > 100 | > 100 | > 100 | > 100 µM | 54.1 | 
COC(NC(=O)Nc1ccccc1C)(C(F)(F)F)C(F)(F)F | > 100 |  |  | > 100 | > 100 | > 100 | > 100 | > 100 | > 100 | > 100 | > 100 | > 100 | > 100 | > 100 µM | > 100 | 
COc1cc2c(c(OC)c1OC)-c1ccc(SC)c(=O)cc1[C@@H](NCc1ccc([N+](=O)[O-])cc1)CC2 | > 100 | > 100 | > 100 | > 100 | 37.5 | > 100 |  |  | > 100 |  | > 100 |  |  | 0.00672 µM and 0.0112 µM |  | > 100
COc1ccc2cc(C(C)C(=O)N3C(=O)OCC3(C)C)ccc2c1 (centres undefined) | > 100 |  | > 100 | > 100 | > 100 | > 100 | > 100 | > 100 | > 100 | > 100 | > 100 | > 100 | > 100 |  |  | 
O=C(N=Nc1ccccc1Cl)NNc1ccccc1Cl | > 100 | > 100 |  |  | 73.1 | 82.9 | > 100 | 58.5 | > 100 | > 100 | > 100 | > 100 |  |  |  | 
Clc1ccc(C2=CCN3CC=C(c4ccc(Cl)cc4)C23)cc1 | 28.3 | 27.4 | 31.6 |  | 45.2 | 28 | 22.4 | 26.1 | 17 | 24.2 | 21 | 27.5 | 28.6 | 31.1 µM | 30.3 | 

From PubChem BioAssay (NCI)
